Assay results published in the NIST ThermoML archive (doi:10.1016/j.fluid.2010.04.008).
± gives the expanded uncertainty stated by the source.

Settings: Liquid, Ebulliometric method (Recirculating still)

Q: Which “vapor or sublimation pressure” value (356.46 K) does the source give for `C1COCCN1` [tetrahydro-1,4-oxazine] here?
A: 22.57 ± 0.2 kPa

Q: What about the “vapor or sublimation pressure” value (359.12 K) of the same compound?
A: 24.96 ± 0.2 kPa

Q: What about the “vapor or sublimation pressure” value (361.7 K) of the same compound?
A: 27.47 ± 0.2 kPa

Q: What about the “vapor or sublimation pressure” value (364.05 K) of the same compound?
A: 30.02 ± 0.21 kPa

Q: And the “vapor or sublimation pressure” value (366.23 K)?
A: 32.49 ± 0.21 kPa

Q: And the “vapor or sublimation pressure” value (368.27 K)?
A: 34.95 ± 0.21 kPa

Q: What about the “vapor or sublimation pressure” value (370.28 K) of the same compound?
A: 37.52 ± 0.21 kPa

Q: What about the “vapor or sublimation pressure” value (372.11 K) of the same compound?
A: 40.01 ± 0.21 kPa

Q: And the “vapor or sublimation pressure” value (373.84 K)?
A: 42.47 ± 0.21 kPa

Q: What about the “vapor or sublimation pressure” value (375.53 K) of the same compound?
A: 45.01 ± 0.21 kPa

Q: What about the “vapor or sublimation pressure” value (377.1 K) of the same compound?
A: 47.47 ± 0.21 kPa

Q: What about the “vapor or sublimation pressure” value (378.63 K) of the same compound?
A: 49.95 ± 0.21 kPa

Q: And the “vapor or sublimation pressure” value (380.12 K)?
A: 52.51 ± 0.21 kPa

Q: And the “vapor or sublimation pressure” value (381.51 K)?
A: 54.94 ± 0.22 kPa

Q: What about the “vapor or sublimation pressure” value (382.87 K) of the same compound?
A: 57.53 ± 0.22 kPa

Q: And the “vapor or sublimation pressure” value (384.16 K)?
A: 59.98 ± 0.22 kPa

Q: What about the “vapor or sublimation pressure” value (385.48 K) of the same compound?
A: 62.51 ± 0.22 kPa

Q: And the “vapor or sublimation pressure” value (386.71 K)?
A: 65.04 ± 0.22 kPa

Q: And the “vapor or sublimation pressure” value (387.9 K)?
A: 67.54 ± 0.22 kPa

Q: What about the “vapor or sublimation pressure” value (389.05 K) of the same compound?
A: 69.99 ± 0.22 kPa

Q: What about the “vapor or sublimation pressure” value (390.19 K) of the same compound?
A: 72.56 ± 0.22 kPa

Q: What about the “vapor or sublimation pressure” value (391.28 K) of the same compound?
A: 75.03 ± 0.22 kPa

Q: And the “vapor or sublimation pressure” value (392.32 K)?
A: 77.49 ± 0.23 kPa

Q: And the “vapor or sublimation pressure” value (393.36 K)?
A: 80.02 ± 0.23 kPa

Q: What about the “vapor or sublimation pressure” value (394.38 K) of the same compound?
A: 82.52 ± 0.23 kPa

Q: And the “vapor or sublimation pressure” value (395.33 K)?
A: 85.07 ± 0.23 kPa

Q: What about the “vapor or sublimation pressure” value (396.32 K) of the same compound?
A: 87.48 ± 0.23 kPa

Q: And the “vapor or sublimation pressure” value (397.26 K)?
A: 90.03 ± 0.23 kPa

Q: And the “vapor or sublimation pressure” value (398.15 K)?
A: 92.46 ± 0.23 kPa

Q: What about the “vapor or sublimation pressure” value (399.11 K) of the same compound?
A: 95.07 ± 0.24 kPa

Q: And the “vapor or sublimation pressure” value (399.93 K)?
A: 97.49 ± 0.24 kPa

Q: What about the “vapor or sublimation pressure” value (400.78 K) of the same compound?
A: 100.01 ± 0.24 kPa

Q: What about the “vapor or sublimation pressure” value (401.24 K) of the same compound?
A: 101.32 ± 0.24 kPa
